This is an account of results in patent US9522124B2, “Methods for treating Alzheimer's disease” (Wisconsin Alumni Research Foundation, priority 2011, dated 2016).

Series [1] deals with Aβ. Nature of the series: ELISA determination of secreted Aβ in conditioned media of H4 cells. The series is classed as cell-based, human. The note with it: 10 μM, 48 hours. As for the experimental part: For Aβ determinations in the conditioned media, H4 cells were plated in 6-well Petri dishes. When 80-90% confluent, cells were washed in PBS and incubated in 1 ml of fresh medium for 48 hr. Secreted Aβ was determined by standard sandwich ELISA as described before (Costantini et al., 2007; Costantini et al., 2006; Jonas et al., 2008; Jonas et al., 2010; Ko and Puglielli, 2009; Pehar et al., 2010). For each sample, the levels of Aβ40, Aβ42, and Aβtotal were quantified as triplicate based upon standard curves run (on every ELISA plate) and then expressed as pmol Aβ/mg of protein. Aβ42 was constantly found to be ˜25% of total Aβ values.
In general terms: An ELISA detects its analyte on a solid surface through an enzyme-linked reagent.

The subject of series [2] is BACE1. Nature of the series: Western blot of BACE1 in brain tissue homogenates of APP695/swe mice. To be noted: 50 mg/kg/day in diet, 4 months. The class given is in vivo, mouse. As for the experimental part: FIG. 16. Compound 9 decreases levels of BACE1 in brain tissue homogenates of APP695/swe transgenic mice. Compound 9 was administered to select transgenic mice for four months, beginning at weaning, with additional transgenic mice used as controls. Brain tissue homogenates were obtained from sacrificed transgenic mice and Western blot assessment of BACE1 in brain tissue homogenates was performed.
(§1) A group of non-transgenic and APP695/swe mice were fed a diet containing 50 mg/kg/day of compound 9. Treatment started at weaning (˜6 weeks of age) and lasted 4 months. At the end of treatment, the animals were sacrificed and the electrophysiological properties of hippocampal brain slices (as induced by theta burst stimulation to the Schaffer collaterals) were studied.
(In general: A western blot detects proteins with antibodies after separation by electrophoresis.)

Series [3] deals with BACE1. Nature of the series: Western blot assessment of BACE1 levels in H4 cell lysates. The series is classed as cell-based, human. The note with it: H4 cells, 48 hours. The method, then:
Western blotting was performed on a 4-12% Bis-Tris SDS-PAGE system (NuPAGE; Invitrogen, Carlsbad, Calif., USA) as described previously (Costantini et al., 2006; Jonas et al., 2008; Jonas et al., 2010; Ko and Puglielli, 2007; Ko and Puglielli, 2009; Pehar et al., 2010). The following antibodies were used in this study: anti-acetylated lysine (monoclonal; cat. no. ab409; Abcam, Cambridge, Mass., USA); anti-BACE1 (polyclonal; cat. no. ab2077; Abcam); anti-Myc (monoclonal; cat. no. sc-40; santa cruz, Santa Cruz, Calif., USA); anti-ATases/NAT8 (polyclonal; cat. no. AP4957c; Abgent, San Diego, Calif., USA); anti-actin (monoclonal; cat. no. A1978; Sigma, St Louis, Mo., USA); anti-C99 (monoclonal; cat. no. M066-3; MBL, Woburn, Mass., USA); anti-acetylated H3 (polyclonal; cat. no. 06-599, Millipore, Billerica, Mass.); anti-acetylated H4 (polyclonal; cat. no. 06-866, Millipore, Billerica, Mass.); anti-αPCNA (polyclonal; cat. no. AP2835b, Abgent, San Diego, Calif., USA).
Samples were imaged with classical chemiluminescence and with the LiCor Odyssey Infrared Imaging System (LI-COR Biosciences, Lincoln, Nebr., USA). For chemiluminescent detection, HRP-conjugated anti-mouse or anti-rabbit secondary antibodies were used at 1:6000 dilution in 3% BSA/TBST (GE Healthcare). Detection was performed with either Lumiglo (KPL) or ECL Plus (GE Healthcare). For infrared imaging, goat anti-rabbit Alexa Fluor 680-conjugated secondary antibodies were used.
To assess their biological effects, we treated human neuroglioma (H4) cells with 10 μM of both compounds. […] This might reflect different kinetics of inhibition as well as different IC50s (see FIG. 2). Alternatively, it might also be explained by different cell-permeability properties. In fact, the cLog P for compound 9 and 19 is 5.03 and 3.19, respectively. The cLog P (or partition coefficient) is an indication of partition properties of a compound between hydrophobic and hydrophilic compartments. Higher values indicate preferential distribution in hydrophobic environments and, as such, increased permeability across biological membranes.

The subject of series [4] is histone acetyltransferase p300/CBP. Nature of the series: In vitro activity of histone acetyltransferase p300/CBP. The note with it: data not shown. The class given is biochemical.
Series [5] deals with Aβ. Nature of the series: Aβ levels in brain homogenates (cortex) of APP695/swe mice. The class given is in vivo, mouse. The method, then: as §1
Note that at this age, the animals have not yet developed plaques. As expected from our previous results in cellular models (Ko and Puglielli, 2009), no effect on the Aβ42/Aβtotal ratio was observed (data not shown). In fact compound 9 affects BACE1 levels and, as such, impacts on the generation of all Aβ species.

Series [6] can be described thus: BBB permeability: mass spectrometry of CSF of treated wild-type mice. To be noted: 50 mg/kg/day in diet, 1 week. The class given is in vivo, mouse. As for the experimental part:
FIGS. 14. (A), (B) and (C) Compound 9 is able to cross the BBB. Wild-type mice (n=5) were fed a diet containing 50 mg/kg/day of compound 9 for one week and then sacrificed. Control animals (n=5) received placebo-containing pellets. CSF was collected and analyzed by mass spectrometry (MS) to detect compound 9. The pick corresponding to compound 9 is indicated. […] Because of the strong hydrophobic properties of the compound, elution was in 100% methanol. Under these conditions most of compound 9 was found protonated and complexed as follows: 1 molecule of compound 9 (protonated):3 molecules of water (1 protonated):1 molecule of methanol. The total mass of the eluted complex was 369.4. This complex is only generated when adding methanol during the elution process for the MS. Compound 9 was never observed in control animals.
To assess BBB permeability properties, a group of 5 wild-type mice received 50 mg/kg/day of compound 9 for 1 week. Animals were then sacrificed and CSF collected for biochemical analysis. Treatment was limited to 1 week because this length of time is usually sufficient to reach equilibrium in biological fluids (Ito, et al., 1998; Singh, 2006; Houston and Galetin, 2008). Concentration and duration of the treatment was based on previous studies with drug-like compounds having similar mass and solubility properties (Ito, et al., 1998; Singh, 2006; Houston and Galetin, 2008).

Another series has as its system ATase1 and ATase2. Briefly: Western blot of ATase1 and ATase2 levels in CHO cells over-expressing transgenic ATase1 or ATase2. The note with it: 10 μM, 48 hours. The class given is cell-based, hamster. The method, then: FIG. 4. Compound 9 causes degradation of the ATases. (A) H4 cells were treated with the indicated compounds (10 μM) for 48 hours prior to Western blot assessment of BACE1 and ATase1/ATase2 levels in total cell lysates. (B, D and E) Quantification of changes are expressed as percent of control (no treatment) and are the average (n=3)±S.D.*, P<0.05; **, P<0.005; ^#, P<0.0005. (C) ELISA determination of secreted Aβ in the conditioned media of the experiment described in (A). Results are expressed as percent of control (no treatment) and are the average (n=3)±S.D.*, P<0.05; **, P<0.005. (F) CHO cells over-expressing either ATase1 or ATase2 were treated with compound 9 (10 μM) for 48 hours prior to Western blot assessment of ATase1 and ATase2 levels in total cell lysates.
Western blotting was performed on a 4-12% Bis-Tris SDS-PAGE system (NuPAGE; Invitrogen, Carlsbad, Calif., USA) as described previously (Costantini et al., 2006; Jonas et al., 2008; Jonas et al., 2010; Ko and Puglielli, 2007; Ko and Puglielli, 2009; Pehar et al., 2010). […]

In the case of `O=c1c(Cl)c2oc3ccccc3nc-2c2ccccc12` [Compound 9], the “levels of Aβ in the conditioned media / generation of Aβ” value with Aβ [1] was “decreased levels of Aβ”. Moreover, in the series with BACE1 [2], the “BACE1 levels in brain homogenates” value is recorded as “marked reduction”. The “levels of BACE1” value with BACE1 [3] (10 μM) was “significant reduction”. For the same compound, the “levels of BACE1 with increasing concentrations” value in the series with BACE1 [3] (increasing concentrations) is on record as “dose-dependent decrease”. Besides, the “inhibition of in vitro activity of p300/CBP” value in series [4] is recorded as “neither compound inhibited”. For the same compound, the “reduction in soluble Aβ in the brain homogenates” value with Aβ [5] (50 mg/kg/day in diet, 4 months) is around 50%. The Aβ in the series on Aβ [5] (brain homogenates (cortex), 50 mg/kg/day in diet, 4 months) worked out at 178 ± 14 ng/gr. For the same compound, the Aβ42/Aβtotal ratio entry in the series on Aβ [5] (data not shown) is on record as “no effect”. Moreover, in series [6], the “detection in CSF (crosses blood brain barrier)” value is reported as “detect compound 9 in all treated animals”. Also, the “levels of transgenic ATase1 and ATase2” value with ATase1 and ATase2 was “significantly decreases”.
